Active and inactive are the calls of the source. Rule as the data show it, for most assays here: actives have a measured EC50 and inactives only a lower limit.
Assays:
[1] = target: Eukaryotic translation initiation factor 4E (Mus musculus, UniProt P63073); assay: eIF4E–eIF4G protein interaction inhibitors, dose response, biochemical, TR-FRET (AID 855); type: functional;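 also: potency for disrupting eIF4E binding to eIF4GI seen as loss of FRET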
Large T antigen = Large T antigen (Simian virus 40, UniProt P03070); type: functional, Betapolyomavirus macacae;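 also: Confirmatory-stage PubChem screen for compounds that inhibit SV40 T antigen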
Cytochrome P450 2D6 = Cytochrome P450 2D6 (Homo sapiens, UniProt P10635);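 also: CYP2D6 member of a cytochrome P450 panel assay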
Cytochrome P450 2C9 = Cytochrome P450 2C9 (Homo sapiens, UniProt P11712)
INS1 = assay: beta cell apoptosis inhibitors, cytokine rescue, dose response, luminescence, retest (AID 449756); type: functional, cell-based; settings: Rattus norvegicus;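 also: cell death triggered by IL-1 beta plus TNF-alpha plus IFN-gamma mixture; protective hits raise ATP signal compared with cytokine alone wells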
[2] = target: T1, Corticotropin-releasing factor receptor 2/Corticotropin-releasing factor-binding protein (Homo sapiens, UniProt P24387+Q13324); assay: activators of CRF receptor 2 with binding protein – uHTS hits, confirmation (AID 602473); type: functional; settings: read-out: EC50_Mean
T1 sequence (Q13324 whole entry): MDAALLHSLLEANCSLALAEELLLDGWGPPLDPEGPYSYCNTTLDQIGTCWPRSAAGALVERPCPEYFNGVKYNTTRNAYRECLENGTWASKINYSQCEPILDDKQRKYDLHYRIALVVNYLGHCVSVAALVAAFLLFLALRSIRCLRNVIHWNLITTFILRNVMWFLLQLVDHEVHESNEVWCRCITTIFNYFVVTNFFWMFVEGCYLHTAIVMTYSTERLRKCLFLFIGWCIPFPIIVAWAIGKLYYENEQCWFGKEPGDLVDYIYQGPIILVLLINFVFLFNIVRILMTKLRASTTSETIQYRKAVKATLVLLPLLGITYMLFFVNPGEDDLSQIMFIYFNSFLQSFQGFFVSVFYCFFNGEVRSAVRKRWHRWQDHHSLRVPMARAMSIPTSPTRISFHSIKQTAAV
T1 sequence (P24387 whole entry): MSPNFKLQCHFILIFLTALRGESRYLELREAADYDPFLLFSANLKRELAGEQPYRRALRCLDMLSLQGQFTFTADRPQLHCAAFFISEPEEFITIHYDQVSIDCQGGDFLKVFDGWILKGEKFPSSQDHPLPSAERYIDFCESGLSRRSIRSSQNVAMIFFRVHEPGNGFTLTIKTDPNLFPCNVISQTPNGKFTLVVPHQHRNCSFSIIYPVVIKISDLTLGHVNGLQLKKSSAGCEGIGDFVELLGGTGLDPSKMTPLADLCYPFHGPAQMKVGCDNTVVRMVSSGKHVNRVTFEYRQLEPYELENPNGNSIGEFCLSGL

[3] = target: T1, Corticotropin-releasing factor receptor 2/Corticotropin-releasing factor-binding protein; assay: Dose Response confirmation of uHTS hits for small molecule antagonists of the CRF-binding protein and CRF-R2 receptor complex.; type: functional; settings: read-out: IC50_Mean
[4] = target: T2, Calpain-2 catalytic subunit (Sus scrofa, UniProt P43367); assay: pig calpain II inhibitor potency, dose response, biochemical, fluorogenic peptide substrate (AID 1420); type: functional
T2 sequence (P43367 whole entry): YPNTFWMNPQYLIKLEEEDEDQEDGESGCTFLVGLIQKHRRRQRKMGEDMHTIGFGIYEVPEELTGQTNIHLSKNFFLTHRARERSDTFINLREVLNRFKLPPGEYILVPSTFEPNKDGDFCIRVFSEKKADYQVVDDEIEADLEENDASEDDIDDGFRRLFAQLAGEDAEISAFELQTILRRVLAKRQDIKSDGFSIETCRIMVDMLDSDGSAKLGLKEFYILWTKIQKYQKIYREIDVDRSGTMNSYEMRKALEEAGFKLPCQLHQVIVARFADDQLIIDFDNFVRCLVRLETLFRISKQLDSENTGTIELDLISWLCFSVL

[5] = Luminescence Cell-Based Dose Confirmation HTS to Identify Inhibitors of Platelet Dense Granule Release. [Related pubchem assays: 1663 (Primary HTS), 1678 (Summary of Project)]; type: functional
[6] = target: Luciferin 4-monooxygenase (Photinus pyralis, UniProt P08659); assay: firefly luciferase enzyme inhibitors, dose response, biochemical, luminescence (AID 1891)
BJ [7] = assay: cytotoxicity toward BJ-TERT-LT-ST fibroblasts, dose response, cell-based, RAS-independent, luminescence (AID 1935); type: functional; settings: Homo sapiens;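 also: BJ fibroblasts immortalized with TERT plus LT and ST oncogenes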
[8] = cytotoxicity toward DRD oncogenic fibroblasts, dose response, cell-based, non-viral oncogenic, luminescence (AID 1934); type: functional; settings: Homo sapiens
BJ [9] = assay: cells; type: functional, cell-based; settings: Homo sapiens
BJ [10] = assay: cytotoxicity toward BJ-TERT fibroblasts, dose response, cell-based, RAS-independent, luminescence (AID 1933); type: functional; settings: Homo sapiens
[11] = target: T3, Zinc finger protein mex-5 (Caenorhabditis elegans, UniProt Q9XUB2); assay: MEX-5/TCR-2 RNA interaction inhibitors, dose response, biochemical, C. elegans, fluorescence polarization (AID 1960)
T3 sequence (Q9XUB2 whole entry): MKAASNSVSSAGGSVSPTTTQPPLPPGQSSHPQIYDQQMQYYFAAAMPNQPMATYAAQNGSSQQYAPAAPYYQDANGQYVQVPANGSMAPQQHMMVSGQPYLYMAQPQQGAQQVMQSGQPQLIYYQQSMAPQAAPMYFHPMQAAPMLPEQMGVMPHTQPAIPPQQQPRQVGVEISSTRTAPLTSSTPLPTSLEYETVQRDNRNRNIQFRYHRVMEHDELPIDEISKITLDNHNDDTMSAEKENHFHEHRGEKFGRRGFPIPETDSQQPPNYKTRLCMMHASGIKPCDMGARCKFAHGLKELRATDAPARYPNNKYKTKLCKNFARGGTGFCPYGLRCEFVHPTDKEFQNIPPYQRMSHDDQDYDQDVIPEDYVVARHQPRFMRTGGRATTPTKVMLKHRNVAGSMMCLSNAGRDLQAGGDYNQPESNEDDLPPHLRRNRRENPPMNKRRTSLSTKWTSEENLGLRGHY

[12] = target: T4, RNA-binding protein pos-1 (Caenorhabditis elegans, UniProt G5EF15); assay: inhibitors of POS-1/mex-3 RNA binding, dose response, biochemical, fluorescence polarization (AID 1964);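 also: purified POS-1 fused to maltose binding protein made in E. coli; potency of compounds blocking POS-1 binding to fluorescent RNA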
T4 sequence (G5EF15 whole entry): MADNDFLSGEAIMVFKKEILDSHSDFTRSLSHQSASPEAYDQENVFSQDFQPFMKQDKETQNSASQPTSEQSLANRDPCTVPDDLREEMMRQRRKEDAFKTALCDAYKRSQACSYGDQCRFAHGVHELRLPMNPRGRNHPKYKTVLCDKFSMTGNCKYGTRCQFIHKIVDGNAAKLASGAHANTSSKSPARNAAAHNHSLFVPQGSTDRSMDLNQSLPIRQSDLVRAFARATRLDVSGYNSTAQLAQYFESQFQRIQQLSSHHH

Chain of Cytochrome P450 2C9 (P11712 whole entry): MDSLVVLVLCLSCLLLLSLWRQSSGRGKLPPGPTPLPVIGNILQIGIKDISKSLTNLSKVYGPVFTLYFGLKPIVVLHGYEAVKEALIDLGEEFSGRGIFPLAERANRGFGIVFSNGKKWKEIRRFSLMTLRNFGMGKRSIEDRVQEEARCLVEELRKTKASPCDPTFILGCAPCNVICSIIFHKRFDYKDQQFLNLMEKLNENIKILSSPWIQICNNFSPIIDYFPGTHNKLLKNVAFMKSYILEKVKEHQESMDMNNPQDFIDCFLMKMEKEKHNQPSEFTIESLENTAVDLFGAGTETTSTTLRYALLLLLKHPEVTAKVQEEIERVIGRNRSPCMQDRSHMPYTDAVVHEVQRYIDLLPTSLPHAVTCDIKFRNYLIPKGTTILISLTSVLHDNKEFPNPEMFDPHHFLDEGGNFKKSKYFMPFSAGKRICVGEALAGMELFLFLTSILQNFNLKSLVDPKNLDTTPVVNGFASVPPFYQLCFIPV
Chain of Large T antigen (P03070 whole entry): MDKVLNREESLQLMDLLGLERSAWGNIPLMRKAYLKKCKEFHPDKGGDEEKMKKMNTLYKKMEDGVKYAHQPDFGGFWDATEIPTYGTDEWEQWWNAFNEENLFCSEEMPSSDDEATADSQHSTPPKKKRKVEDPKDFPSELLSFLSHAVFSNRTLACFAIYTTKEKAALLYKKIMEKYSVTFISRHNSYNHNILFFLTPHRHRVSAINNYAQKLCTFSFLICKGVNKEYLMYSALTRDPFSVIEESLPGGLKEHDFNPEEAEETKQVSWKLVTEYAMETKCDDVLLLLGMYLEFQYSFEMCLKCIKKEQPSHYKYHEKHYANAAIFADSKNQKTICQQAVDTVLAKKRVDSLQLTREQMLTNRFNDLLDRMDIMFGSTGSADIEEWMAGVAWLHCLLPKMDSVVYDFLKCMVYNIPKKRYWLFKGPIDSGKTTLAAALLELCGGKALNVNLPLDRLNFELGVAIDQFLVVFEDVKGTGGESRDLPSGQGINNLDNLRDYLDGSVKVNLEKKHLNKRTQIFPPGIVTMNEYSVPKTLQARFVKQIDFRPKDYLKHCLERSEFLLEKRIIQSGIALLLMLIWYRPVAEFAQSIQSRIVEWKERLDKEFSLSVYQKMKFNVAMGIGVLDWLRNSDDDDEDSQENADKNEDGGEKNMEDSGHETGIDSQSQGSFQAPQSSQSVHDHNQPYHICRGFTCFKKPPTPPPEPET
Chain of Eukaryotic translation initiation factor 4E (P63073 whole entry): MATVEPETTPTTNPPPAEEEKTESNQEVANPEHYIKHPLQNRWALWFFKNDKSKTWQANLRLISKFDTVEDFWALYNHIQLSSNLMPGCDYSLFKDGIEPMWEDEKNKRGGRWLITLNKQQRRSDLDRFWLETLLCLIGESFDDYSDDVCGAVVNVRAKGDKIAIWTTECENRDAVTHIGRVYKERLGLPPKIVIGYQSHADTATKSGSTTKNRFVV
Chain of Cytochrome P450 2D6 (P10635 whole entry): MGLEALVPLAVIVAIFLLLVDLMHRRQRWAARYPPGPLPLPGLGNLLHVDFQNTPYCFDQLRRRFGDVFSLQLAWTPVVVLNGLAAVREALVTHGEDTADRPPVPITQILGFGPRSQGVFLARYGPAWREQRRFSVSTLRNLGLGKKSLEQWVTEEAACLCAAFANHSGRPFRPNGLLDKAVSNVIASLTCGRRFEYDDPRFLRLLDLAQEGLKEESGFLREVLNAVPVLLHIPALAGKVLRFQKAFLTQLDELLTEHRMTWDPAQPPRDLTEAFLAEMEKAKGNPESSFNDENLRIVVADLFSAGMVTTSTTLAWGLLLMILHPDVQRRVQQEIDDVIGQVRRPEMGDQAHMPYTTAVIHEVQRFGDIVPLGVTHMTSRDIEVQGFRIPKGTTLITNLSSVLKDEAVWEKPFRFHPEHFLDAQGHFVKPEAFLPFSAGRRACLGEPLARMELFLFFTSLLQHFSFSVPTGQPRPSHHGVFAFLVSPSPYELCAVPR
Chain of Luciferin 4-monooxygenase (P08659 whole entry): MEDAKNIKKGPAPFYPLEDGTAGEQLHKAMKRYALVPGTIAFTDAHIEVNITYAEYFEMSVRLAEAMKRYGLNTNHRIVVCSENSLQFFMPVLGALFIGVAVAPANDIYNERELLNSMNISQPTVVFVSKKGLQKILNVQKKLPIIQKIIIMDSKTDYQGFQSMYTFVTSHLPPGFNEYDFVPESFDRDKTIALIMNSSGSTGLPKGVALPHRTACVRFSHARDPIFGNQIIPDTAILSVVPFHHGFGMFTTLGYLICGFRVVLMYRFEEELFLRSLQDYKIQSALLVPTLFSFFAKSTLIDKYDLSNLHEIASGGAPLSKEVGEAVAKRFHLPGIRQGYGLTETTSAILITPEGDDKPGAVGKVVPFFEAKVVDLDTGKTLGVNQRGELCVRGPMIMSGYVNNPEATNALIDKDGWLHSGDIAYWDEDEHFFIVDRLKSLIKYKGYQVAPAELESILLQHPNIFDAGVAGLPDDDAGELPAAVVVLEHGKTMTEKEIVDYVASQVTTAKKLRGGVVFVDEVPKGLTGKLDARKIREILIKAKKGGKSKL

## Cc1c(C(=O)N2CCCCC2)nn(-c2ccc(Cl)cc2)c(=O)c1C#N
[1]
  IC50: 50 µM (inactive)

## O=C(Oc1ccc(=O)n(-c2ccccc2)n1)c1cccc(Cl)c1
[1]
  IC50: > 64 µM (inactive)

## CN(C)c1ccc(NC(N)=S)cc1
Large T antigen
  IC50: 7.29 µM (active)

## COc1cccc(-c2ccc3ncnc(NCc4ccc(OC)cc4OC)c3c2)c1
Cytochrome P450 2D6
  AC50: 20 µM (inconclusive)
Cytochrome P450 2C9
  AC50: 0.501 µM (inconclusive)

## Nc1c(N(CCC2=CCCCC2)C(=O)COc2ccc(F)cc2)c(=O)[nH]c(=O)n1Cc1ccccc1
INS1
  AC50: 4.49 µM (active)

## Cc1cccc(NC(=O)c2cc(S(=O)(=O)c3ccccc3)ccc2Cl)c1
[2]
  EC50: > 53 µM (inactive)
[3]
  IC50: 3.47 µM (active)
[4]
  IC50: 7.13 µM (not active)

## COc1cc(NC(=O)c2ccccc2)c(OC)cc1NC(=O)CSc1nc(O)cc(C)c1C#N
[5]
  EC50: 1.21 µM (active)
[6]
  EC50: > 112 µM (not active)
BJ [7]
  EC50: > 150 µM (not active)
[8]
  EC50: 34.7 µM (active)
BJ [9]
  EC50: 36 µM (inconclusive)
BJ [10]
  EC50: 73.6 µM (inconclusive)

## CN1CCN(c2cc(N3CCCC3)c([N+](=O)[O-])cc2F)CC1
Cytochrome P450 2D6
  AC50: 14.1 µM (inconclusive)
Cytochrome P450 2C9
  AC50: 0.1 µM (inconclusive)

## Cc1cc(N2CCN(Cc3cn(C)nc3-c3ccccc3F)CC2)cc(C)n1
BJ [7]
  EC50: 14.9 µM (active)
[8]
  EC50: 16.3 µM (inconclusive)
BJ [9]
  EC50: 101 µM (inconclusive)
BJ [10]
  EC50: 10.1 µM (active)

## CCOc1ccc(N2C(=O)/C(=C/c3ccc(C)o3)C(=O)NC2=S)cc1
Large T antigen
  IC50: 49.9 µM (active)
[11]
  EC50: > 300 µM (not active)
[12]
  EC50: > 300 µM (not active)
